{"source": "patent US6653339B2", "about": "“Method of treating irritable bowel syndrome” (Pfizer Inc., priority 2001, dated 2003)", "key": {"irritable bowel syndrome": {"tested_on": "irritable bowel syndrome", "test": "Clinical Study 3, immediate release darifenacin three times daily vs placebo in irritable bowel syndrome", "format": "in vivo, human", "conditions": "for Constipation % of patients reporting AEs corrected for placebo / Dry Mouth % of patients reporting AEs corrected for placebo / Global Rating % Reduction from baseline corrected for placebo / Loose Stool % Reduction from baseline corrected for placebo / Pain Score % Reduction from baseline corrected for placebo / Total AE % of patients reporting AEs corrected for placebo / Urgency % Reduction from baseline corrected for placebo / Vision % of patients reporting AEs corrected for placebo / Constipation % of patients reporting AEs / Dry Mouth % of patients reporting AEs / Global Rating % Reduction from baseline / Loose Stool % Reduction from baseline / Pain Score % Reduction from baseline / Total AE % of patients reporting AEs / Urgency % Reduction from baseline / Vision % of patients reporting AEs: Clinical Study 3, 12 weeks; for Constipation % of patients reporting AEs / Dry Mouth % of patients reporting AEs / Global Rating % Reduction from baseline / Loose Stool % Reduction from baseline / Pain Score % Reduction from baseline / Total AE % of patients reporting AEs / Urgency % Reduction from baseline / Vision % of patients reporting AEs: uncorrected", "description": "The invention may be illustrated by the following clinical studies wherein the treatment of irritable bowel syndrome using darifenacin administered as a once-daily controlled (slow) release formulation in accordance with the prior art is compared with treatment using darifenacin administered as a thrice daily immediate release formulation in accordance with the present invention. Specifically, Clinical Studies 1 and 2 used controlled (slow) release formulations of darifenacin administered once daily (od) and Clinical Study 3 used an immediate release formulation of darifenacin administered three times daily (tid).\nDuring each clinical study, four efficacy measures of irritable bowel syndrome severity were measured, viz. ‘Pain Score’ (Average daily pain score, a composite of severity and number of days of pain), ‘Loose Stool’ (Number of days on which loose or watery stool occurred), ‘Urgency’ (Number of days on which urgency occured) and so-called ‘Global Rating’ (Patient rating of their condition taking into account all symptoms, 0=no problems). Adverse events (AE) such as constipation, dry mouth and visual abnormalities were also recorded.\nClinical Study 3 was a multi-centre, double-blind, randomised, placebo-controlled parallel group study in which three dose strengths of darifenacin 1.25, 2.5 and 5 mg dosed tid were compared with placebo. Treatment lasted 12 weeks following a 2-week run-in period.\nThe immediate release dosage forms of darifenacin used in Clinical Study 3 were 1.25 mg, 2.5 mg and 5.0 mg capsules having the following compositions in a Size 3 capsule shell: […]"}, "[1]": {"test": "Day 6 plasma concentrations of darifenacin, four-way crossover study in healthy male subjects", "format": "in vivo, human", "conditions": "7.5 mg tid immediate release capsule vs 20 mg SR od matrix tablet, healthy volunteers"}, "[2]": {"conditions": "immediate release capsule 3 × 1.25 mg (tid)"}, "[3]": {"conditions": "immediate release capsule 3 × 2.5 mg (tid)"}, "[4]": {"conditions": "immediate release capsule 3 × 5.0 mg (tid)"}}}
{"compound": "NC(=O)C(c1ccccc1)(c1ccccc1)[C@@H]1CCN(CCc2ccc3c(c2)CCO3)C1", "note": "[darifenacin]", "values": [{"measurement": "Constipation % of patients reporting AEs corrected for placebo", "setting": "irritable bowel syndrome; [2]", "result": 3.4, "unit": "%"}, {"measurement": "Dry Mouth % of patients reporting AEs corrected for placebo", "setting": "irritable bowel syndrome; [2]", "result": 0.3, "unit": "%"}, {"measurement": "Global Rating % Reduction from baseline corrected for placebo", "setting": "irritable bowel syndrome; [2]", "result": 9, "unit": "%"}, {"measurement": "Loose Stool % Reduction from baseline corrected for placebo", "setting": "irritable bowel syndrome; [2]", "result": 8, "unit": "%"}, {"measurement": "Pain Score % Reduction from baseline corrected for placebo", "setting": "irritable bowel syndrome; [2]", "result": 10, "unit": "%"}, {"measurement": "Total AE % of patients reporting AEs corrected for placebo", "setting": "irritable bowel syndrome; [2]", "result": "−4", "unit": "%"}, {"measurement": "Urgency % Reduction from baseline corrected for placebo", "setting": "irritable bowel syndrome; [2]", "result": 11, "unit": "%"}, {"measurement": "Vision % of patients reporting AEs corrected for placebo", "setting": "irritable bowel syndrome; [2]", "result": "−2.2", "unit": "%"}, {"measurement": "Constipation % of patients reporting AEs", "setting": "irritable bowel syndrome; [2]", "result": 6.3, "unit": "%"}, {"measurement": "Dry Mouth % of patients reporting AEs", "setting": "irritable bowel syndrome; [2]", "result": 16, "unit": "%"}, {"measurement": "Global Rating % Reduction from baseline", "setting": "irritable bowel syndrome; [2]", "result": 27, "unit": "%"}, {"measurement": "Loose Stool % Reduction from baseline", "setting": "irritable bowel syndrome; [2]", "result": 16, "unit": "%"}, {"measurement": "Pain Score % Reduction from baseline", "setting": "irritable bowel syndrome; [2]", "result": 33, "unit": "%"}, {"measurement": "Total AE % of patients reporting AEs", "setting": "irritable bowel syndrome; [2]", "result": 36, "unit": "%"}, {"measurement": "Urgency % Reduction from baseline", "setting": "irritable bowel syndrome; [2]", "result": 36, "unit": "%"}, {"measurement": "Vision % of patients reporting AEs", "setting": "irritable bowel syndrome; [2]", "result": 1.4, "unit": "%"}, {"measurement": "Constipation % of patients reporting AEs corrected for placebo", "setting": "irritable bowel syndrome; [3]", "result": 5.6, "unit": "%"}, {"measurement": "Dry Mouth % of patients reporting AEs corrected for placebo", "setting": "irritable bowel syndrome; [3]", "result": 8.8, "unit": "%"}, {"measurement": "Global Rating % Reduction from baseline corrected for placebo", "setting": "irritable bowel syndrome; [3]", "result": 11, "unit": "%"}, {"measurement": "Loose Stool % Reduction from baseline corrected for placebo", "setting": "irritable bowel syndrome; [3]", "result": 22, "unit": "%"}, {"measurement": "Pain Score % Reduction from baseline corrected for placebo", "setting": "irritable bowel syndrome; [3]", "result": 17, "unit": "%"}, {"measurement": "Total AE % of patients reporting AEs corrected for placebo", "setting": "irritable bowel syndrome; [3]", "result": "−3", "unit": "%"}, {"measurement": "Urgency % Reduction from baseline corrected for placebo", "setting": "irritable bowel syndrome; [3]", "result": 17, "unit": "%"}, {"measurement": "Vision % of patients reporting AEs corrected for placebo", "setting": "irritable bowel syndrome; [3]", "result": "−0.1", "unit": "%"}, {"measurement": "Constipation % of patients reporting AEs", "setting": "irritable bowel syndrome; [3]", "result": 5.6, "unit": "%"}, {"measurement": "Dry Mouth % of patients reporting AEs", "setting": "irritable bowel syndrome; [3]", "result": 24.5, "unit": "%"}, {"measurement": "Global Rating % Reduction from baseline", "setting": "irritable bowel syndrome; [3]", "result": 29, "unit": "%"}, {"measurement": "Loose Stool % Reduction from baseline", "setting": "irritable bowel syndrome; [3]", "result": 30, "unit": "%"}, {"measurement": "Pain Score % Reduction from baseline", "setting": "irritable bowel syndrome; [3]", "result": 40, "unit": "%"}, {"measurement": "Total AE % of patients reporting AEs", "setting": "irritable bowel syndrome; [3]", "result": 37, "unit": "%"}, {"measurement": "Urgency % Reduction from baseline", "setting": "irritable bowel syndrome; [3]", "result": 42, "unit": "%"}, {"measurement": "Vision % of patients reporting AEs", "setting": "irritable bowel syndrome; [3]", "result": 3.5, "unit": "%"}, {"measurement": "Constipation % of patients reporting AEs corrected for placebo", "setting": "irritable bowel syndrome; [4]", "result": 8.4, "unit": "%"}, {"measurement": "Dry Mouth % of patients reporting AEs corrected for placebo", "setting": "irritable bowel syndrome; [4]", "result": 33.9, "unit": "%"}, {"measurement": "Global Rating % Reduction from baseline corrected for placebo", "setting": "irritable bowel syndrome; [4]", "result": 14, "unit": "%"}, {"measurement": "Loose Stool % Reduction from baseline corrected for placebo", "setting": "irritable bowel syndrome; [4]", "result": 44, "unit": "%"}, {"measurement": "Pain Score % Reduction from baseline corrected for placebo", "setting": "irritable bowel syndrome; [4]", "result": 13, "unit": "%"}, {"measurement": "Total AE % of patients reporting AEs corrected for placebo", "setting": "irritable bowel syndrome; [4]", "result": 20, "unit": "%"}, {"measurement": "Urgency % Reduction from baseline corrected for placebo", "setting": "irritable bowel syndrome; [4]", "result": 32, "unit": "%"}, {"measurement": "Vision % of patients reporting AEs corrected for placebo", "setting": "irritable bowel syndrome; [4]", "result": 4.2, "unit": "%"}, {"measurement": "Constipation % of patients reporting AEs", "setting": "irritable bowel syndrome; [4]", "result": 11.3, "unit": "%"}, {"measurement": "Dry Mouth % of patients reporting AEs", "setting": "irritable bowel syndrome; [4]", "result": 49.6, "unit": "%"}, {"measurement": "Global Rating % Reduction from baseline", "setting": "irritable bowel syndrome; [4]", "result": 32, "unit": "%"}, {"measurement": "Loose Stool % Reduction from baseline", "setting": "irritable bowel syndrome; [4]", "result": 52, "unit": "%"}, {"measurement": "Pain Score % Reduction from baseline", "setting": "irritable bowel syndrome; [4]", "result": 36, "unit": "%"}, {"measurement": "Total AE % of patients reporting AEs", "setting": "irritable bowel syndrome; [4]", "result": 60, "unit": "%"}, {"measurement": "Urgency % Reduction from baseline", "setting": "irritable bowel syndrome; [4]", "result": 57, "unit": "%"}, {"measurement": "Vision % of patients reporting AEs", "setting": "irritable bowel syndrome; [4]", "result": 7.8, "unit": "%"}, {"measurement": "all four efficacy measures (Pain Score, Loose Stool, Urgency and Global Rating)", "setting": "irritable bowel syndrome; immediate release tid study, all three doses", "result": "marked improvements"}, {"measurement": "darifenacin plasma concentration (FIG. 1)", "setting": "[1]", "result": "periodic ‘peaking’ of the darifenacin plasma concentration above that of the controlled release curve"}]}
